Measured values as given in the METLIN SMRT retention time set (Domingo-Almenara et al. 2019).

Assay: gradient 5% acetonitrile 3 min, to 50% in 2 min, to 85% in 15 min, held 3 min, 100 µL/min
Conditions: column: Zorbax Extend-C18 2.1 x 50 mm; eluents: water / acetonitrile, 0.1% formic acid
How it was run: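 Retention times of pure standards were taken from adduct peaks that were selected by computer and manually inspected. Over 3 months, mixtures of ~100 molecules were run by HPLC–quadrupole time-of-flight mass spectrometry in positive and negative ionization mode. The Zorbax Extend-C18 column (2.1 × 50 mm, 1.8 μm) ran at 100 μL/min in water and acetonitrile, each containing 0.1% formic acid, with 40 μL dead volume and 900 μL dwell volume.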

| RP-LC retention time [s] | Compound |
| --- | --- |
| 591 | CCOC(=O)C1CCc2sc(NC(=O)CNC(=O)c3ccc(=O)[nH]c3)nc21 (stereo not drawn) |
| 611 | O=C(NCc1ccc(F)cc1)N1CCN(c2cc(-c3ccncc3)[nH]n2)CC1 |
| 650 | O=C(NC1CC1)c1ccccc1OCC1CCCN(Cc2cc3ccccc3nc2Cl)C1 (stereo not drawn) |
| 916 | CCOc1ccc(NS(=O)(=O)c2cc(C(=O)Nc3cccc(Cl)c3)n[nH]2)cc1 |
| 635 | Cc1cc(=O)n(CC(=O)Nc2cc(F)ccc2C)c(N2CCCC2)n1 |
| 696 | O=C(OCCc1ccccn1)c1cn(-c2ccccc2)c(=O)c2ccccc12 |
| 962 | CCc1nc(-c2csc(S(=O)(=O)N3CCC(C(=O)Nc4ccc(F)cc4)CC3)c2)no1 |
| 698 | CC(C)NC(=O)c1ccc2c(c1)N(C)C(=O)CS2 |
| 734 | O=C(NCc1ccco1)C1CC(=O)N(c2ccc3c(c2)CCN3C(=O)C2CCC2)C1 (stereo not drawn) |
| 846 | COC(=O)c1cc(S(=O)(=O)N2CCCC2C(=O)NCc2ccccc2C)cn1C (stereo not drawn) |
| 719 | COCCNC(=O)c1cc2c(=O)n(Cc3ccccc3)ccc2s1 |
| 916 | Cc1ccc(C)c(Cn2nc(-c3nc(C)no3)ccc2=O)c1 |
| 660 | C=CCN1CCN(C(=O)C2=NN(c3ccc(Cl)cc3)c3ncccc3S2(=O)=O)CC1 |
| 599 | Cc1nnc(N2CCC(C(=O)N3CCC(C(N)=O)CC3)CC2)c2nn(-c3ccccc3)c(C)c12 |
| 972 | C=C1C(=O)O[C@@H]2[C@H]3O[C@]3(C)CC/C=C(/C)CC[C@@H]12 |
| 1080 | Cc1cccc(N2CCN(C(=O)C3c4ccccc4CCN3C(=O)C3CC3)CC2)c1C (stereo not drawn) |
| 1000 | O=S(=O)(CCCOc1ccc2c(c1)OCO2)NCCC1=CCCCC1 |
| 936 | COc1ccc(OC)c(NC(=O)N(C)CCc2noc(COc3ccccc3)n2)c1 |
| 871 | CCOC(=O)c1cnn(-c2ccc(Cl)nn2)c1C |
| 920 | CC(Cc1ccco1)NC(=O)C1CCN(S(=O)(=O)c2ccc3c(c2)sc(=O)n3C(C)C)CC1 (stereo not drawn) |
| 983 | O=C(Nc1nc2c(Cl)cccc2s1)C1COc2ccccc2O1 (stereo not drawn) |
| 616 | Cn1cccc(C(=O)N2CCC3(CC2)OCCN3S(=O)(=O)c2ccccc2)c1=O |

| RP-LC retention time [s] | Compound |
| --- | --- |
| 575 | Cn1ncc2c(N3CCSCC3)nc(C(=O)NCCc3cccnc3)nc21 |
| 892 | CCN1CCN(Cc2nc(-c3ccc(N(C)Cc4ccccc4)nc3)no2)CC1 |
| 599 | O=C(NCc1ccccn1)C1CCN(c2nc3ccc(-c4cncnc4)nc3s2)CC1 |
| 1190 | COc1ccc(NC(=O)C2CCCN(c3nc4c(s3)c(C)nn4-c3ccccc3)C2)cc1Cl (stereo not drawn) |
| 576 | CS(=O)(=O)N1CCN(CCNC(=O)Nc2cccc(C(F)(F)F)c2)CC1 |
| 715 | Cc1cc(C)n(CC(=O)N2CCCCCCNC(=O)[C@@H]3CCCC[C@@H]32)n1 |
| 1020 | Cc1ccc(-c2ccc(=O)n(CCc3nc(-c4ccc5c(c4)OCO5)no3)n2)cc1C |
| 760 | Cc1noc(-c2ccnc(-n3cnc(C(=O)NCc4cccc(Cl)c4)c3)c2)n1 |
| 997 | Cc1nn(CC(=O)NCCCOC(C)C)c(=O)c2c(-n3cccc3)n(-c3ccc(Cl)cc3)nc12 |
| 1000 | Cc1ccccc1-n1c(=O)c2sccc2n(Cc2nc(-c3ccccc3)no2)c1=O |
| 688 | COc1ccccc1N1CCN(C(=O)C2CCCN(c3cnc4nccnc4c3)C2)CC1 (stereo not drawn) |
| 952 | COc1ccccc1N1CCN(c2nnc(SC(C)C)s2)CC1 |
| 693 | CCn1cc(-c2ccc(OC)cc2)cc1C(=O)NC(C)c1cccnc1 (stereo not drawn) |
| 980 | CCOC(=O)c1c(S(=O)(=O)N2CCC(C(=O)Nc3cc(C)cc(C)c3)CC2)c(C)n(CC)c1C |
| 931 | O=C(CN1CCN(Cc2cccc(Cl)c2)C1=O)NCc1ccc(C(F)(F)F)cc1 |
| 781 | O=C(NCc1ccc(F)c(Cl)c1)C1CCN(c2ncnc3c2oc2ccccc23)CC1 |
| 802 | Cc1ccc(NC(=O)Cn2c(C)cc(-c3nnc(C)o3)c2C)c(C)c1 |
| 831 | CO[C@H]1C(=O)N(C(C)C)[C@H]1C1CCN(S(=O)(=O)c2cccc3nsnc23)CC1 |
| 634 | C[C@@H]1COC(Nc2ccc3ncnc(Nc4ccc(OCc5nccs5)c(Cl)c4)c3c2)=N1 |
| 744 | Cc1ccc(Cn2c(CCCC(=O)N3CCN(c4ncccn4)CC3)nc3cccnc32)cc1 |
| 891 | CCc1nn2c(CNC(=O)c3ccccn3)c(-c3ccccc3)nc2s1 |
| 582 | COc1ccc(CC(=O)NCC2(CO)CC2)cc1OC |

| RP-LC retention time [s] | Compound |
| --- | --- |
| 891 | CCn1ccc(C(=O)Nc2cccc(OCc3nnc(-c4ccccc4)o3)c2)n1 |
| 658 | CCOC(=O)c1ccc(NC(=O)N2CCN(c3nc4ccccc4n3C)CC2)cc1 |
| 767 | O=C(c1cnccn1)N1CCCn2nc(-c3cccc(Cl)c3)cc2C1 |
| 705 | COc1ccccc1NC(=O)Cn1cc(C(=O)N2CCCC2)c(=O)c2ccc(C)nc21 |
| 737 | Cc1cc(NC(=O)c2ccc(S(=O)(=O)Nc3ccc4c(c3)OCO4)o2)no1 |
| 654 | CCc1ccc2oc(C(=O)NCC(c3cccs3)N(C)C)cc(=O)c2c1 (stereo not drawn) |
| 604 | Cc1cc(N2CCN(C)CC2)nc2ccc(NC(=O)Nc3ccccc3Cl)cc12 |
| 588 | Cc1nn(C)c(C)c1S(=O)(=O)N1CCC(n2c(C)cnc2-c2ccncc2)C1 (stereo not drawn) |
| 565 | CCCCN1CCN(C(=O)CCC2CCCN(c3cc(NC4CC4)ncn3)C2)CC1 (stereo not drawn) |
| 1010 | CCc1nc(-c2csc(S(=O)(=O)N3CCCC(C(=O)Nc4ccccc4F)C3)c2)no1 (stereo not drawn) |
| 960 | Cc1ccccc1CNS(=O)(=O)c1cn(C(C)C)c2ncccc12 |
| 1020 | COc1cccc(-c2noc(C3CCCN3C(=O)Nc3cc(C)ccc3C)n2)c1 (stereo not drawn) |
| 733 | Cc1nc(-c2cnccn2)nc2c1CCC(=O)N2Cc1cccc(F)c1 |
| 950 | COc1ccc(-c2noc(C3CC(=O)N(c4cc(Cl)ccc4OC)C3)n2)cc1 (stereo not drawn) |
| 604 | COc1ccccc1-c1c(C)nn2c(N3CCN(c4ccccn4)CC3)cc(C)nc12 |
| 670 | CCN1CCCC1CNC(=O)c1nc(-c2oc3c(C)cccc3c2C)no1 (stereo not drawn) |
| 764 | OC(C#Cc1ccccc1)(c1ccccc1)c1ccccc1 |
| 1160 | Cc1cc(C)cc(NC(=O)c2cc(C)n3nc(C)cc3n2)c1 |
| 1340 | COc1ccc(-c2nc(-c3ccc(S(=O)(=O)N4CCC(C)CC4)cc3)no2)cc1 |
| 692 | O=C([C@@H]1C[C@H](F)CN1S(=O)(=O)c1ccc(F)cc1F)N1CCOCC1 |
| 570 | O=C(NCc1ccccc1)C1CCN(Cc2nncn2-c2ccccc2F)CC1 |
| 879 | Cc1c(C(=O)N2CCN(c3ccccn3)CC2)oc2ccc3c(c12)C(=O)CC1(CCCCCC1)O3 |

| RP-LC retention time [s] | Compound |
| --- | --- |
| 565 | Cc1cccc(NC(=O)N2CCc3nc[nH]c3C2)c1C |
| 708 | O=C(Cn1nc2nc(N3CCCC3)ccn2c1=O)Nc1ccc(F)c(Cl)c1 |
| 1340 | Cc1cc(C)n(-c2ccnc(N3CCc4ccccc43)n2)n1 |
| 575 | Cc1ccc(NC(=O)N2CCc3nc[nH]c3C2)cc1 |
| 726 | CN(CC1CCOCC1)C(=O)Nc1ccc(Cl)cc1F |
| 923 | CC(C)(C)c1ccc(C(=O)Nc2cnc(N3CCOCC3)nc2)cc1 |
| 783 | Nc1ccc(C(=O)c2ccccc2)cc1[N+](=O)[O-] |
| 591 | O=S(=O)(Nc1ccncc1)c1cccc(C(F)(F)F)c1 |
| 597 | Cc1nn(CC(=O)NCCCN2CCc3ccccc3C2)c(=O)c2noc(C)c12 |
| 696 | COc1ccc(CN2C(=O)COC[C@H]2C(=O)NCC2CC2)c(OC)c1 |
| 734 | Cc1ccn2c(Nc3ccc4c(c3)OCCO4)c(-c3ccc(N(C)C)cc3)nc2c1 |
| 951 | COc1ccc(NC(=O)C2CCN(S(=O)(=O)c3cn(C(C)C)cn3)CC2)c(OC)c1 |
| 676 | O=c1cc(Cn2nc3ccc(-c4ccc(Cl)cc4)nn3c2=O)nc2ccccn12 |
| 622 | O=C(c1ccccc1OCC1CCCN(C2CCC3(CC2)OCCO3)C1)N1CCCC1 (stereo not drawn) |
| 696 | CN(C)c1nc2ncn3c(=O)n(CC(=O)Nc4ccc(F)c(F)c4)nc3c2s1 |
| 861 | CCOc1ccc(CNC(=O)C2=Cc3cc(OC)ccc3OC2)cc1OC |
| 589 | Cn1c(N2CCCC(C(=O)NCC3CCN(CCc4cccs4)CC3)C2)cc(=O)n(C)c1=O (stereo not drawn) |
| 608 | CCCNS(=O)(=O)c1cc(-c2[nH]ncc2C(=O)N(C)C)oc1C |
| 1150 | CCCC(=O)N1CCc2c([nH]c3ccccc23)C1c1cccc(OCC)c1 (stereo not drawn) |
| 664 | COc1ccc(C(=O)Nc2c(-c3ccccc3)nc3ccccn23)c(OC)c1 |
| 833 | Cc1cccc(CN2C(=O)C3(CCOCC3)CC2c2nnnn2C(C)(C)C)c1 (stereo not drawn) |
| 821 | COc1ccc(-c2cn3c(CC(=O)Nc4ccc(Br)cc4F)csc3n2)cc1OC |
